Experiment [1] addresses Histamine H3 receptor (Homo sapiens, UniProt Q9Y5N1). Nature of the experiment: Binding potency was determined by displacement of [3H]N-alpha-methyl histamine from cloned human histamine H3 receptor expressed in C6 cells. Type of experiment: cell-based.
Experiment [2] addresses T1, Histamine H3 receptor (Rattus norvegicus, UniProt Q9QYN8). Nature of the experiment: Binding potency was determined by displacement of [3H]N-alpha-methyl histamine from histamine H3 receptor of rat cortical membranes. In kind it is cell membranes, Membrane.
Experiment [3] has as its target T1, Histamine H3 receptor. Nature of the experiment: Binding potency by displacement of [3H]N-alpha-methyl histamine from histamine H3 receptor of rat cortical membranes. In kind it is cell membranes, Membrane.
The target in experiment [4] is T1, Histamine H3 receptor. Nature of the experiment: pBinding potency by displacement of [3H]N-alpha-methyl histamine from histamine H3 receptor of rat cortical membranes. In kind it is cell membranes, Membrane.

T1 sequence (Q9QYN8 whole entry): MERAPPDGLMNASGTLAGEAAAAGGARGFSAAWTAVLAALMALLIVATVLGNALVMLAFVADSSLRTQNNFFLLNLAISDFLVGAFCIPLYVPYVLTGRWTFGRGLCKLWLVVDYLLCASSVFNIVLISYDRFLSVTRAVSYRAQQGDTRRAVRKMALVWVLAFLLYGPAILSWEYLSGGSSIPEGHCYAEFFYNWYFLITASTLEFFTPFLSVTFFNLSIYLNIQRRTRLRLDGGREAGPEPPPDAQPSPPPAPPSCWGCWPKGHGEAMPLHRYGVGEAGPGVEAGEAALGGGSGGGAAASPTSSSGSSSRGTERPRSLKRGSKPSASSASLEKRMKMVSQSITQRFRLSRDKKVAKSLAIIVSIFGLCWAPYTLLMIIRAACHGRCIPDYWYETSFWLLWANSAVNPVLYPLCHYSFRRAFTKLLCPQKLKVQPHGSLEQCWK
Chain of Histamine H3 receptor (Homo sapiens, UniProt Q9Y5N1) (Q9Y5N1 whole entry): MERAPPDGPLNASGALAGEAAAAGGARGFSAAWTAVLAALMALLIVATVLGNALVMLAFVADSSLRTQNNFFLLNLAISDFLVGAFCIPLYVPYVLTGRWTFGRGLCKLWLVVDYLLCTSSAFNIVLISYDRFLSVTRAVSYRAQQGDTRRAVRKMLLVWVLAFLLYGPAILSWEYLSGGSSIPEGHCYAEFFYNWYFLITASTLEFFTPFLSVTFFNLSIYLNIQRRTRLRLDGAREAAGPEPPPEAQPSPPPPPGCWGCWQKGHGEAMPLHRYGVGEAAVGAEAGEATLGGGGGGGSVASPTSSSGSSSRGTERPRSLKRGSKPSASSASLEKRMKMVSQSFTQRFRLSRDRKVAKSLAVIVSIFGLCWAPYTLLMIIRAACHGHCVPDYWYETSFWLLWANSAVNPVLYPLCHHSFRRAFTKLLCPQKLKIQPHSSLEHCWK

`O=C(c1ccc(-c2ccc3oc(CCN4CCC[C@@H]4CO)cc3c2)nc1)N1CCOCC1`: the Ki was determined as 36 nM at Histamine H3 receptor [1] and 110 nM on Histamine H3 receptor [2].

As to `CC1CCN(CCc2cc3cc(-c4ccc(C(=O)N5CCOCC5)cc4)ccc3o2)CC1`, on Histamine H3 receptor [1], the Ki came out at 17 nM.

Take `C[C@@H]1CC[C@@H](C)N1CCc1cc2cc(-c3ccc(C(=O)N4CCOCC4)cn3)ccc2o1`: the figures for the Ki on Histamine H3 receptor [1] and at Histamine H3 receptor [2] were 5.9 nM and 26 nM, respectively.

As to `CN(C)[C@@H]1CCN(CCc2cc3cc(-c4ccc(C#N)cc4)ccc3o2)C1`, the inhibition constant Ki on Histamine H3 receptor [1] was 16 nM; at Histamine H3 receptor [2] it was 63 nM.

On to `C[C@@H]1CCC[C@H](C)N1CCc1cc2cc(-c3ccc(C#N)cc3)ccc2o1`, for which the Ki at Histamine H3 receptor [1] worked out at 2.4 nM; on Histamine H3 receptor [2] it was 22 nM.

`O=C(c1ccc(-c2ccc3oc(CCN4CC[C@@H](O)C4)cc3c2)cc1)N1CCOCC1`: the Ki at Histamine H3 receptor [1] came out at 6.2 nM; at Histamine H3 receptor [2], 35 nM.

In the case of `C[C@@H]1CCC[C@H](C)N1CCc1cc2cc(-c3ccc(C(=O)N4CCOCC4)cn3)ccc2o1`, the Ki was 5.6 nM on Histamine H3 receptor [1], 44.7 nM at Histamine H3 receptor [2] and 45 nM on Histamine H3 receptor [3].

At Histamine H3 receptor [1], `N#Cc1ccc(-c2ccc3oc(CCn4ccnc4)cc3c2)cc1` registered a Ki of 600 nM.

Turning to `O=C(c1ccc(-c2ccc3oc(CCN4CCCCCC4)cc3c2)nc1)N1CCOCC1`, the figures for the Ki at Histamine H3 receptor [1] and on Histamine H3 receptor [2] were 16 nM and 33 nM, respectively.

On to `O=C(c1ccc(-c2ccc3oc(CCN4CCC(O)C4)cc3c2)nc1)N1CCOCC1` (stereo unspecified), for which the Ki on Histamine H3 receptor [1] was determined as 12 nM. This counts as double-digit nanomolar.

Turning to `C[C@@H]1CCCN1CCc1cc2cc(-c3ccc(C(=O)N4CCOCC4)cn3)ccc2o1`, the results for the Ki at Histamine H3 receptor [1] and on Histamine H3 receptor [2] were 0.55 nM and 1.6 nM, respectively.

In the case of `O=C(c1ccc(-c2ccc3oc(CCN4CCCCC4)cc3c2)nc1)N1CCOCC1`, the Ki on Histamine H3 receptor [1] is 12 nM; on Histamine H3 receptor [2] it was 49 nM.

Consider `CC1CCN(CCc2cc3cc(-c4ccc(C(=O)N5CCOCC5)cn4)ccc3o2)CC1`, for which the figures for the Ki at Histamine H3 receptor [1] and at Histamine H3 receptor [2] were 87 nM and 151 nM, respectively.

For the compound `O=C(c1ccc(-c2ccc3oc(CCN4CCCCCC4)cc3c2)cc1)N1CCOCC1`, the Ki on Histamine H3 receptor [1] came to 3.5 nM.

In the case of `CC1CCCCN1CCc1cc2cc(-c3ccc(C(=O)N4CCOCC4)cc3)ccc2o1` (stereo unspecified), the Ki amounted to 3 nM on Histamine H3 receptor [1] and 14 nM at Histamine H3 receptor [2].

For `C[C@@H]1CCCN1CCc1cc2cc(-c3ccc(C(=O)N4CCOCC4)cc3)ccc2o1`, the Ki is 0.7 nM on Histamine H3 receptor [1], 2 nM on Histamine H3 receptor [4] and 1.95 nM on Histamine H3 receptor [2].

As to `N#Cc1ccc(-c2ccc3oc(CCN4CCCCCC4)cc3c2)cc1`, the Ki at Histamine H3 receptor [1] came out at 7.8 nM.

The compound `O=C(c1ccc(-c2ccc3oc(CCN4CCOCC4)cc3c2)nc1)N1CCOCC1` displayed a Ki at Histamine H3 receptor [2] of 260 nM. This lies in the sub-micromolar range.

`CC1CCN(CCc2cc3cc(-c4ccc(C#N)cc4)ccc3o2)CC1`: the values for the Ki at Histamine H3 receptor [1] and on Histamine H3 receptor [2] were 15 nM and 16 nM, respectively.

Turning to `CN(C)[C@H]1CCN(CCc2cc3cc(-c4ccc(C#N)cc4)ccc3o2)C1`, the results for the inhibitory constant (Ki) at Histamine H3 receptor [1] and on Histamine H3 receptor [2] were 49 nM and 140 nM, respectively.

On Histamine H3 receptor [1], `N#Cc1ccc(-c2ccc3oc(CCN4CCC[C@@H]4CO)cc3c2)cc1` displayed a Ki of 18 nM.

Turning to `N#Cc1ccc(-c2ccc3oc(CCN4CCC[C@@H]4CC(=O)O)cc3c2)cc1`, the Ki is 320 nM on Histamine H3 receptor [1] and 1600 nM on Histamine H3 receptor [2].

Regarding `N#Cc1ccc(-c2ccc3oc(CCN4CCC(O)C4)cc3c2)cc1` (stereo unspecified), the results for the Ki at Histamine H3 receptor [1] and at Histamine H3 receptor [2] were 8.8 nM and 95 nM, respectively.

For the compound `CC1CCCCN1CCc1cc2cc(-c3ccc(C#N)cc3)ccc2o1` (stereo unspecified), at Histamine H3 receptor [1], the affinity, expressed as Ki, was 5.8 nM.

In the case of `C[C@@H]1CCC[C@H](C)N1CCc1cc2cc(-c3ccc(C(=O)N4CCOCC4)cc3)ccc2o1`, the inhibitory constant (Ki) amounted to 1.2 nM on Histamine H3 receptor [1] and 6.6 nM at Histamine H3 receptor [2].

Regarding `O=C(c1ccc(-c2ccc3oc(CCN4CCCCC4)cc3c2)cc1)N1CCOCC1`, the figures for the inhibitory constant (Ki) on Histamine H3 receptor [1] and at Histamine H3 receptor [2] were 2.3 nM and 6.2 nM, respectively.

On to `N#Cc1ccc(-c2ccc3oc(CCN4CC=CCC4)cc3c2)cc1`, for which the Ki was 10 nM at Histamine H3 receptor [1] and 50 nM on Histamine H3 receptor [2].

On to `C[C@@H]1CC[C@@H](C)N1CCc1cc2cc(-c3ccc(C(=O)N4CCOCC4)cc3)ccc2o1`, for which the inhibition constant Ki on Histamine H3 receptor [1] worked out at 2.2 nM. This lies in the single-digit nanomolar range.

For `O=C(c1ccc(-c2ccc3oc(CCN4CC=CCC4)cc3c2)cc1)N1CCOCC1`, the Ki came out at 5.9 nM at Histamine H3 receptor [1] and 17 nM on Histamine H3 receptor [2].

Turning to `O=C(c1ccc(-c2ccc3oc(CCN4CCCC4)cc3c2)nc1)N1CCOCC1`, the inhibition constant (Ki) on Histamine H3 receptor [1] is 3.9 nM; at Histamine H3 receptor [2], 29 nM.

On to `O=C(c1ccc(-c2ccc3oc(CCN4CCOCC4)cc3c2)cc1)N1CCOCC1`, for which the results for the Ki on Histamine H3 receptor [1] and at Histamine H3 receptor [2] were 45 nM and 160 nM, respectively.

On Histamine H3 receptor [1], `N#Cc1ccc(-c2ccc3oc(CCN4CCCCC4)cc3c2)cc1` came in with an inhibition constant (Ki) of 8.8 nM.

As to `C[C@@H]1CC[C@@H](C)N1CCc1cc2cc(-c3ccc(C#N)cc3)ccc2o1`, the results for the Ki on Histamine H3 receptor [1] and at Histamine H3 receptor [2] were 5.1 nM and 42 nM, respectively.

Regarding `O=C(c1ccc(-c2ccc3oc(CCN4CCC[C@H]4CO)cc3c2)cc1)N1CCOCC1`, the Ki worked out at 1.9 nM on Histamine H3 receptor [1] and 6.9 nM on Histamine H3 receptor [2].

On to `N#Cc1ccc(-c2ccc3oc(CCN4CCC[C@H]4CO)cc3c2)cc1`, for which affinity on Histamine H3 receptor [1] was put at a Ki of 2.2 nM.
